Data: US20230242544A1, “QUINAZOLINE COMPOUNDS, PREPARATION METHODS AND USES THEREOF” (INVENTISBIO CO., LTD., priority 2020, published 2023)

Assays:
Ba/F3_KRAS^G12D cells = Ba/F3_KRAS^G12D cells (Homo sapiens, UniProt P01116, G12D, cells depend on it); assay: Ba/F3 KRAS G12D cell proliferation assay (CellTiter-Glo); assay type: cell-based; details: treated for 3 days, cell-titer Glo, cell growth inhibition, read-out: BaF3_KRAS^G12D IC50
In short: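 KRAS G12D-transduced Ba/F3 cells, IL3-independent and puromycin-selected, seeded at 5×10^3/well overnight, then given serially diluted compound for 3 days. Proliferation read by CellTiter-Glo luminescence. IC50 from a four-parameter logistic fit with Hill slope.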

[1] = target: recombinant human KRAS^G12D protein (Homo sapiens, UniProt P01116, G12D); assay: Temperature-dependent Fluorescence (TdF) KRAS G12D protein binding assay; details: 6 μM KRAS^G12D protein, 10 μM compound, Sypro Orange; Kd calculated from the fluorescent shift
Chain of recombinant human KRAS^G12D protein (P01116 1-188 isoform P01116-2 G12D): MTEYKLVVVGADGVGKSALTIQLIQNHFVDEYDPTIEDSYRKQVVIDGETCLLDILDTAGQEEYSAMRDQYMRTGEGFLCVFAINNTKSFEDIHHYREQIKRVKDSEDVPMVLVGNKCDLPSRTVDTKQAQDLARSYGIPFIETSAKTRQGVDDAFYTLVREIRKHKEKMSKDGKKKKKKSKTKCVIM
In short: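 Thermal-shift binding with Sypro Orange: 6 μM KRAS^G12D and 10 μM compound in 25 mM HEPES pH 7.5, 150 mM NaCl, 10 mM MgCl2, 1% DMSO. Binding read as ΔTm with versus without compound; Kd calculated from the degree of fluorescence shift.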

Chain of Ba/F3_KRAS^G12D cells (P01116 whole entry G12D): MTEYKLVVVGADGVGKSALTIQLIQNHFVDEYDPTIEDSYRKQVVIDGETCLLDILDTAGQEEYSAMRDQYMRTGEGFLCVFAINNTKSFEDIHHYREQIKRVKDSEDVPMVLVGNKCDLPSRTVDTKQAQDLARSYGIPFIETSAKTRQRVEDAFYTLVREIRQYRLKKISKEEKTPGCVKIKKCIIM

Row | Compound | GI50 (Ba/F3_KRAS^G12D cells) | Kd [1]
1 | Oc1cc(-c2c(Cl)cc3c(N4C5CCC4CNC5)nc(OCC45CCCN4CCC5)nc3c2F)c2ccccc2c1 [Compound 33] | 500 to 5000 nM | < 500 nM
2 | CN1CCC[C@H]1COc1nc(N2C[C@H]3NCC[C@H]32)c2cc(Cl)c(-c3cc(O)cc4cccc(Cl)c34)c(F)c2n1 [Compound 25] | 500 to 5000 nM | > 5000 nM
3 | Cc1cccc2cc(O)cc(-c3c(Cl)cc4c(N5CC6CCC(C5)N6)nc(OC[C@@]56CCCN5C[C@H](F)C6)nc4c3F)c12 (single isomer, unassigned) [Compound 117] | < 500 nM | < 500 nM
4 | CN1CCC[C@H]1COc1nc(N2CCC3NCC32)c2cc(Cl)c(-c3cc(O)cc4cccc(Cl)c34)c(F)c2n1 (stereo partly shown) [Compound 18] | 500 to 5000 nM | > 5000 nM
5 | CC(C)N1CC(Nc2nc(N3C[C@@H](C)NC[C@@H]3C)c3cc(Cl)c(-c4cc(O)cc5ccccc45)c(F)c3n2)C1 [Compound 49] | > 5000 nM | > 5000 nM
6 | Oc1cc(-c2c(Cl)cc3c(N4CC5CCC(C4)N5)nc(OCCN4CCCC4)nc3c2F)c2ccccc2c1 [Compound 78] | 500 to 5000 nM | > 5000 nM
7 | Fc1c(-c2cccc3cccc(Cl)c23)c(Cl)cc2c(N3CCNCC3)nc(OCC34CCCN3CCC4)nc12 [Compound 28] | < 500 nM | > 5000 nM
8 | Nc1cccc(F)c1-c1c(Cl)cc2c(N3CCNCC3)nc(OCC34CCCN3CCC4)nc2c1F [Compound 14] | > 5000 nM | > 5000 nM
9 | Cc1cccc2cc(O)cc(-c3c(Cl)cc4c(N5CC6CCC(C5)N6)nc(OC[C@@]56CCCN5C[C@H](F)C6)nc4c3F)c12 [Compound 47] | < 500 nM | < 500 nM
10 | CCc1cccc2cc(O)cc(-c3c(Cl)cc4c(N5CC6CCC(C5)N6)nc(OC[C@@]56CCCN5C[C@H](F)C6)nc4c3F)c12 (racemic) [Compound 77] | < 500 nM | < 500 nM
11 | Cc1cccc2cc(O)cc(-c3c(C#N)cc4c(N5CC6CCC(C5)N6)nc(OC[C@@]56CCCN5C[C@H](F)C6)nc4c3F)c12 [Compound 88] | < 500 nM | < 500 nM
12 | Oc1cc(-c2c(OCC3CC3)cc3c(N4CC5CCC(C4)N5)nc(OC[C@@]45CCCN4C[C@H](F)C5)nc3c2F)c2c(Cl)cccc2c1 [Compound 124] | < 500 nM | < 500 nM
13 | Oc1cc(-c2c(Cl)cc3c(N4CC5CCC(C4)N5)nc(OCC45CCCN4CCC5)nc3c2F)c2c(Cl)cccc2c1 [Compound 61] | 500 to 5000 nM | < 500 nM
14 | CN1CC(F)(F)CC1COc1nc(N2CC3CCC(C2)N3)c2cc(Cl)c(-c3cc(O)cc4cccc(Cl)c34)c(F)c2n1 (stereo not shown) [Compound 35] | 500 to 5000 nM | 500 to 5000 nM
15 | Fc1c(-c2cccc3cccc(Cl)c23)c(Cl)cc2c(N3CC4CCC(C3)N4)nc(OCC34CCCN3CCC4)nc12 [Compound 64] | < 500 nM | 500 to 5000 nM
16 | N#Cc1cc2c(N3CC4CCC(C3)N4)nc(OC[C@@]34CCCN3C[C@H](F)C4)nc2c(F)c1-c1cccc2cccc(Cl)c12 [Compound 89] | 500 to 5000 nM | 500 to 5000 nM
17 | Oc1cc(-c2c(Cl)cc3c(N4CC5CCC(C4)N5)nc(OCCN4CCC(O)C4)nc3c2F)c2ccccc2c1 (stereo not shown) [Compound 46] | > 5000 nM | 500 to 5000 nM
18 | Oc1cc(-c2c(Cl)cc3c(N4CCNCC4)nc(OCC45CCCN4CCC5)nc3c2F)c2ccccc2c1 [Compound 29] | 500 to 5000 nM | > 5000 nM
19 | Cc1cccc2cccc(-c3c(Cl)cc4c(N5CC6CCC(C5)N6)nc(OC[C@@]56CCCN5C[C@H](F)C6)nc4c3F)c12 [Compound 131] | 500 to 5000 nM | < 500 nM
20 | Cc1cccc2cc(F)cc(-c3c(Cl)cc4c(N5CC6CCC(C5)N6)nc(OC[C@@]56CCCN5C[C@H](F)C6)nc4c3F)c12 [Compound 137] | 500 to 5000 nM | < 500 nM
21 | Oc1cc(-c2c(Cl)cc3c(N4CC5CCC(C4)N5)nc(OC[C@@]45CCCN4C[C@H](F)C5)nc3c2F)c2c(Cl)c(F)ccc2c1 (single isomer, unassigned) [Compound 138] | < 500 nM | < 500 nM
22 | C[C@H]1CNCCN1c1nc(OC[C@@]23CCCN2C[C@H](F)C3)nc2c(F)c(-c3cc(O)cc4ccccc34)c(Cl)cc12 [Compound 127] | 500 to 5000 nM | 500 to 5000 nM

Row | Compound | GI50 (Ba/F3_KRAS^G12D cells) | Kd [1]
23 | Cc1cccc2cc(O)cc(-c3c(Cl)cc4c(N5CC6CCC(C5)N6)nc(OC[C@@]56CCCN5C[C@H](F)C6)nc4c3F)c12 (single isomer, unassigned) [Compound 118] | < 500 nM | < 500 nM
24 | CN(C)CC1CCN(c2nc(N3CC4CCC(C3)N4)c3cc(Cl)c(-c4cc(O)cc5ccccc45)c(F)c3n2)CC1 [Compound 53] | 500 to 5000 nM | > 5000 nM
25 | CN(C)C1CCCN(c2nc(N3CC4CCC(C3)N4)c3cc(Cl)c(-c4cc(O)cc5ccccc45)c(F)c3n2)C1 (stereo not shown) [Compound 56] | 500 to 5000 nM | > 5000 nM
26 | N#Cc1cc2c(N3CC4CCC(C3)N4)nc(OC[C@@]34CCCN3C[C@H](F)C4)nc2c(F)c1-c1cc(O)cc2ccc(F)c(Cl)c12 [Compound 129] | < 500 nM | < 500 nM
27 | N#CC[C@H]1CN(c2nc(OC[C@@]34CCCN3C[C@H](F)C4)nc3c(F)c(-c4cc(O)cc5ccccc45)c(Cl)cc23)CCN1 [Compound 96] | 500 to 5000 nM | > 5000 nM
28 | Oc1cc(-c2c(Cl)cc3c(N4CC5CCC(C4)N5)nc(OC[C@@]45CCCN4C[C@H](F)C5)nc3c2F)c2ccccc2c1 (single isomer, unassigned) [Compound 108] | 500 to 5000 nM | > 5000 nM
29 | CN(C)CCCOc1nc(N2CC3CCC(C2)N3)c2cc(Cl)c(-c3c(O)cccc3F)c(F)c2n1 [Compound 8] | > 5000 nM | > 5000 nM
30 | C#Cc1c(F)ccc2cc(O)cc(-c3c(OC)cc4c(N5CC6CCC(C5)N6)nc(OC[C@@]56CCCN5C[C@H](F)C6)nc4c3F)c12 [Compound 163] | < 500 nM | < 500 nM
31 | C#Cc1c(F)ccc2cc(O)cc(-c3cc(Cl)c4c(N5CC6CCC(C5)N6)nc(OC[C@@]56CCCN5C[C@H](F)C6)nc4c3F)c12 [Compound 168] | < 500 nM | < 500 nM
32 | CN1CCC[C@H]1COc1nc(N2CC3(CNC3)C2)c2cc(Cl)c(-c3cc(O)cc4cccc(Cl)c34)c(F)c2n1 [Compound 17] | > 5000 nM | > 5000 nM
33 | Fc1c(-c2cccc3ccccc23)c(Cl)cc2c(N3CC4CCC(C3)N4)nc(OCC34CCCN3CCC4)nc12 [Compound 69] | 500 to 5000 nM | 500 to 5000 nM
34 | C#Cc1c(F)ccc2cc(O)cc(-c3c(Cl)cc4c(N5CC6CCC(C5)N6)nc(OC[C@@]56CCCN5C[C@H](F)C6)nc4c3F)c12 (single isomer, unassigned) [Compound 154] | < 500 nM | < 500 nM
35 | CN1C[C@H](F)C[C@H]1COc1nc(N2CC3CCC(C2)N3)c2cc(Cl)c(-c3cc(O)cc4ccccc34)c(F)c2n1 [Compound 76] | 500 to 5000 nM | < 500 nM
36 | Nc1cccc(F)c1-c1c(Cl)cc2c(N3C4CCC3CNC4)nc(OCC34CCCN3CCC4)nc2c1F [Compound 66] | > 5000 nM | > 5000 nM
37 | Nc1cc2ccccc2c(-c2c(Cl)cc3c(N4CC5CCC(C4)N5)nc(OCC45CCCN4CCC5)nc3c2F)n1 [Compound 116] | > 5000 nM | 500 to 5000 nM
38 | Cc1ccc2[nH]ncc2c1-c1c(C#N)cc2c(N3CC4CCC(C3)N4)nc(OC[C@@]34CCCN3C[C@H](F)C4)nc2c1F [Compound 92] | < 500 nM | < 500 nM
39 | Oc1cc(-c2c(Cl)cc3c(N4CC5CCC(C4)N5)nc(OC[C@]45CCCN4C[C@@H](F)C5)nc3c2F)c2c(Cl)cccc2c1 (single isomer, unassigned) [Compound 102] | 500 to 5000 nM | > 5000 nM
40 | CN1CCC[C@H]1COc1nc(N2CCNCC23CC3)c2cc(Cl)c(-c3cc(O)cc4cccc(Cl)c34)c(F)c2n1 [Compound 23] | 500 to 5000 nM | 500 to 5000 nM
41 | C[C@@H]1CN(c2nc(OC[C@@H]3CCCN3C)nc3c(F)c(-c4cc(O)cc5cccc(Cl)c45)c(Cl)cc23)[C@@H](C)CN1 [Compound 21] | 500 to 5000 nM | > 5000 nM
42 | CN1CCC1COc1nc(N2CC3CCC(C2)N3)c2cc(Cl)c(-c3cc(O)cc4ccccc34)c(F)c2n1 (stereo not shown) [Compound 79] | 500 to 5000 nM | < 500 nM
43 | C[C@@H]1CN(c2nc(OCC3CN(C)C3)nc3c(F)c(-c4cc(O)cc5ccccc45)c(Cl)cc23)[C@@H](C)CN1 [Compound 36] | 500 to 5000 nM | > 5000 nM
44 | CN(C)C1CN(c2nc(N3CC4CCC(C3)N4)c3cc(Cl)c(-c4cc(O)cc5ccccc45)c(F)c3n2)C1 [Compound 39] | 500 to 5000 nM | > 5000 nM
